Tests used:
SH-SY5Y cells = test: MTT cell viability assay, Aβ-treated SH-SY5Y cells; type: cell-based; settings: 1 μM Aβ oligomers, 24 h, dose-dependent
Description: The SH-SY5Y cell line was purchased from the Peking Union Hospital Cell Bank, cultured in a humidified incubator under 5% CO2 and 37° C., A MTT cell viability assay was performed according to the instructions in the kit (Sigma). […] The optical density values were determined at a wavelength of 563 nm (Synergy H4, Bio Tek). The neurite growth test was performed according to the method described in the prior documents (see, for example, Wang, Y. J., et al., Effects of proNGF on neuronal viability, neurite growth and amyloid-beta metabolism. Neurotox Res, 2010, 17(3): p. 257-67).

[1] = test system: APPswe/PS1DE9 (AD) transgenic mice; test: Open field test; type: in vivo; settings: AD mice vs control group
Description: APPswe/PS1DE9 (AD) transgenic mice were purchased from Jackson Laboratory, USA (No. 005864), raised in the SPF grade animal house of The Third Affiliated Hospital of The Third Military Medical University. All the processes and correlated experiments applied to the mice were approved and filed with the Animal Ethics Committee of the Third Military Medical University. […] Alternatively, the daily dose for the prophylactic group may be 6.4 mg/kg, and the daily dose for the treatment group may be 12.8 mg/kg. Administration from 3-month old to 9-month old is the prophylactic test, and administration from 9-month old to 12-month old is the therapeutic test After reaching a stated time, the mice in each group received behavioral tests according to the method in the follows. Three mice in each group were taken for Golgi staining. […] The entire process was recorded by video, and analyzed with an image analysis software (ANY-maze, Stoelting). In the platform test, the escape path length and escape latency were measured and calculated. In the probe test, the time in each quadrant and the time across platform were measured. […] In the open field test, the mouse was put in the center of an open field for 3 min, and its path was recorded by a tracking system (Limelight, ActiMetrics). At the same time, the numbers of rearing, grooming, defecation and urination of the mouse were recorded.

β-secretase (BACE1) [2] = target: T1, β-secretase (BACE1) (Mus musculus, UniProt P56818); test: β-secretase activity in brain tissues (kit); type: in vivo; settings: AD mice brain
T1 construct: The proteins in the brain tissue homogenates were extracted with a RIP A buffer solution; from tissue; host or cells: brain of APPswe/PS1DE9 mice
Description: (§1) APPswe/PS1DE9 (AD) transgenic mice were purchased from Jackson Laboratory, USA (No. 005864), raised in the SPF grade animal house of The Third Affiliated Hospital of The Third Military Medical University. All the processes and correlated experiments applied to the mice were approved and filed with the Animal Ethics Committee of the Third Military Medical University. […] Alternatively, the daily dose for the prophylactic group may be 6.4 mg/kg, and the daily dose for the treatment group may be 12.8 mg/kg. Administration from 3-month old to 9-month old is the prophylactic test, and administration from 9-month old to 12-month old is the therapeutic test After reaching a stated time, the mice in each group received behavioral tests according to the method in the follows. Three mice in each group were taken for Golgi staining. The remaining mice were overly anaesthetized to receive brain anatomy. One side of the cerebral hemisphere was frozen and then for a biochemical analysis, and the other side of the cerebral hemisphere was fixed with 4% paraform for a histological analysis.
After homogenating the frozen brain tissues, extraction was conducted with TBS, SDS and formic acid successively. The TBS, SDS and formic acid extracts represent soluble Aβ, loosen senile plaques and compact senile plaques, respectively. […]

[3] = test system: Aβ induced oxidative stress; test: ROS detection; type: cell-based
Description: The ROS detection was performed according to the scheme provided by the manufacturer (Cell Biolabs Inc).

neurons = test: Neuron apoptosis in the brain of AD mice; type: in vivo
Description: as §1

β-secretase (BACE1) [4] = test: Western blot of BACE1 expression in brain; type: in vivo; settings: AD mice brain
Description: (§2) APPswe/PS1DE9 (AD) transgenic mice were purchased from Jackson Laboratory, USA (No. 005864), raised in the SPF grade animal house of The Third Affiliated Hospital of The Third Military Medical University. All the processes and correlated experiments applied to the mice were approved and filed with the Animal Ethics Committee of the Third Military Medical University. […] Alternatively, the daily dose for the prophylactic group may be 6.4 mg/kg, and the daily dose for the treatment group may be 12.8 mg/kg. […]
(§3) The enzymes related with Aβ formation and degradation their molecule levels, the levels of hyperphosphprylated Tau proteins, and the levels of synaptic plasticity correlated proteins were all detected with Western blot. […] The blotting was detected with the following antibodies: APP C terminal antibody (171610, Millipore), BACE1 antibody (Millipore), Aβ antibody (6E10, Abcam), Nepriiysin antibody (Millipore), RAGE antibody (Millipore), LRP antibody (5A6, Calbiochem), IDE antibody (epitomics), phosphorylated Tau protein antibody, including pS396 (Signalway), pT231 (Signalway), pS199 (epitomics), pS262 (Abcam), SNAP25 antibody (Millipore), Synaptophysin antibody (Millipore), Synapsin I antibody (Millipore), VAMP1 antibody (Millipore), PSD95 antibody (Millipore), F-actin antibody (Actin) (Sigma-Aldrich). […]

Aβ42 = Aβ42 (Homo sapiens, UniProt P05067); test: Western blot determination of aggregation-inhibitive effect on Aβ; type: biochemical; settings: read-out: inhibition of Aβ from forming aggregates (Western blot)
IDE = test: Western blot of Aβ metabolizing enzymes in brain: IDE; type: in vivo; settings: AD mice brain
Description: as §2, §3

N2a/Swe.Δ9 cells = settings: cited from earlier work
RAGE = test: Western blot of Aβ metabolizing enzymes in brain: RAGE; type: in vivo; settings: AD mice brain
Description: as §2, §3

Aβ42, sequence (P05067 672-713 limits assumed): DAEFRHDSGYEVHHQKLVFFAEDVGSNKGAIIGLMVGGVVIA
T1 sequence (P56818 46-501): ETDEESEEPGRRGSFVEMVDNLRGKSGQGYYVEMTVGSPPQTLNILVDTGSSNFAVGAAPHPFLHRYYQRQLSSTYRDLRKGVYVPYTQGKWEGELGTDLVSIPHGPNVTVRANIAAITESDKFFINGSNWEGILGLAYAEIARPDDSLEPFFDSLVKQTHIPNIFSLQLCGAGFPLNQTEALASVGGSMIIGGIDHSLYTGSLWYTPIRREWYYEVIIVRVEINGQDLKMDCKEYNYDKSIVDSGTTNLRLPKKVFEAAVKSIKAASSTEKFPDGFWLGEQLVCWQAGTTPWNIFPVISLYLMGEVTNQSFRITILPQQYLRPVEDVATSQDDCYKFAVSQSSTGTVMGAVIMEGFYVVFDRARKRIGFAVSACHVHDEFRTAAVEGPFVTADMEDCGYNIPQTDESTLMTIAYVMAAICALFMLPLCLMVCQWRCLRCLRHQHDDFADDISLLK

activity of β-secretase (BACE1) (β-secretase (BACE1) [2]): significant decrease
inhibition at 3 µM (Aβ42): 50%
Compound: CC1=NN(c2ccccc2)C(=O)C1 [Edaravone, 3-methyl-1-phenyl-2-pyrazolin-5-one]
cell survival rate (SH-SY5Y cells): cell survival rate increases significantly
open field probe distance [1]: significantly higher than in the control group
open field rearings [1]: significantly higher than in the control group
Aβ induced oxidative stress (ROS test) [3]: reverse the Aβ induced oxidative stress
neuron apoptosis in the brain (neurons): significantly reduce the neuron apoptosis
expression of β-secretase (BACE1) (β-secretase (BACE1) [4]): significant decrease
influence on IDE (IDE): no influence
mitochondrion dependant apoptosis pathway (N2a/Swe.Δ9 cells): inhibit the mitochondrion dependant apoptosis pathway
influence on RAGE (RAGE): no influence

— patent US20170312253A1 (The Third Affiliated Hospital, Third Military Medical …, priority 2014, published 2017)
